These are literature values, as cited in article PMC9835671 (The Pediatric Infectious Disease Journal, 2022).

Series [1] relates to S aureus. As to conditions: neutropenic murine thigh infection model.
For a further series, the system named is serum albumin. As to conditions: intravenously administered.
Series [2] has as its system S aureus.
Series [3] has as its system S aureus. As to conditions: adult popPK model; 1000-mg (double-dose) and 1500-mg (single-dose) doses; MIC ≤2 mg/L.
In a further series the test system is ABSSSI. As to conditions: for Clinical response: microbiological ITT population.
The conditions of series [4]: adults.

Converted amounts (≈) assume the structure as drawn. Like-named read-outs stand apart in the source and are kept apart here.

For orientation: MIC90 means an inhibitory concentration at the 90% level, which refers to growth in some studies and to a panel of isolates in others. Regarding `CN[C@H]1C(=O)N[C@@H]2Cc3ccc(cc3)Oc3cc4cc(c3O[C@@H]3O[C@H](C(=O)O)[C@@H](O)[C@H](O)[C@H]3NC(=O)CCCCCCCCC(C)C)Oc3ccc(cc3Cl)[C@@H](O)[C@@H]3NC(=O)[C@H](NC(=O)[C@@H]4NC(=O)[C@@H](NC2=O)c2cc(cc(O)c2Cl)Oc2cc1ccc2O)c1ccc(O)c(c1)-c1c(O[C@H]2O[C@H](CO)[C@@H](O)[C@H](O)[C@@H]2O)cc(O)cc1[C@@H](C(=O)NCCCN(C)C)NC3=O` [dalbavancin], the “24-hour fAUC/MIC target for bacterial stasis” value in the series with S aureus [1] is 27.1 h. Moreover, in the series on serum albumin, the “bound to serum albumin” value is on record as ~ 93%. In addition, in the series on serum albumin, the unbound form is 7%. Also, the CLSI susceptibility breakpoint in the series on S aureus [2] (Clinical and Laboratory Standards Institute) was 0.25 µg/mL. The MIC90 in the series on S aureus [2] (against S aureus) was 0.03 µg/mL (≈ 0.0165 µM). In addition, the “simulated patients predicted to achieve the stasis target” value in the series with S aureus [3] was > 99%. The Clinical response is listed as 97.3% in the series on ABSSSI (double-dose regimen, end-of-treatment); 97.3% with ABSSSI (double-dose regimen, follow-up); 94.8% in the series on ABSSSI (single-dose regimen, end-of-treatment); 97.4% in the series on ABSSSI (single-dose regimen, follow-up). Besides, the “patients who achieved a clinical cure” value with ABSSSI (test-of-cure) is recorded as > 96%. Further, the “terminal elimination half-life (t1/2)” value in series [4] is > 14 days.
